Experimental data taken from US20260285801A1, “LIPID NANOPARTICLE FOR TARGETED DELIVERY OF THERAPEUTIC PAYLOADS” (Trustees of Tufts College, priority 2023, published 2026).

What was measured:
[1] = Encapsulation efficiency and mRNA quantity by Ribogreen fluorescence plate assay; type: physicochemical; conditions: LNP with mRNA payload formulated with the lipid, 16.8/4.0/2.0/1.0, Lipids:mRNA 25:1; for EE %: (total RNA - unencapsulated RNA)/total RNA
Protocol: (§1) RNA working solutions (0.134 mg/ml) were prepared in 25 mM sodium acetate buffer using DNase/RNase-free distilled water. Lipid stock solutions (10 mg/mL) were freshly prepared with active lipids or helper lipids (e.g., cholesterol, DOPC or DSPC, or ALC-0159) in ethanol. Reagents were mixed by vortexing and sonicating until the lipids were completely dissolved. A lipid mixture was first prepared by combining the active lipids (e.g., ionizable lipids of the present disclosure) and helper lipids into one vial and mixing thoroughly. Lipid nanoparticles were then formed by mixing the RNA working solution (0.134 mg/ml) and the lipid mixture at 3:1 volume ratio, either manually (for smaller scale) or by Precision Igniter microfluidic device. The formulation solution was transferred into a 300 kDa MWCO Float-A-Lyzer G2 Dialysis Device and dialyzed against at least 1000-folds volume of 50 mM Tris buffer overnight at 4° C. The LNP solution was sterilized with a 0.22 μm filter.
(§2) For LNP characterization, size and polydispersity index (PDI) were determined by dynamic light scattering using a Zetasizer Nano ZS. 10 μL of LNP suspension was transferred to a low-volume cuvette containing 900 μL of Ca^2+ and Mg^2+ free PBS at pH 7.4. Refractive index was set to […] and temperature was set to 25° C. Encapsulation efficiency (EE %) was measured using a fluorescence plate-based assay employing the Ribogreen reagent (Invitrogen) as per PNI Ribogreen assay protocol 16. This assay measures the quantity of mRNA in samples with intact LNPs to determine the quantity of unencapsulated RNA as well as in LNP samples disrupted by triton X-100 to measure the total RNA. EE % is calculated as the difference between the total RNA and the unencapsulated RNA divided by the total RNA.

[2] = LNP size and polydispersity index by dynamic light scattering (Zetasizer Nano ZS); type: physicochemical; conditions: LNP with mRNA payload formulated with the lipid; active lipid/Cholesterol/DOPC/DMG-PEG 16.8/4.0/2.0/1.0; Lipids:mRNA 25:1; PBS pH 7.4, 25° C.
Protocol: as §1, §2

female adult BALB/c mice = assay: IV injection of Luc mRNA/LNP, whole body bioluminescence by IVIS imaging; type: in vivo; conditions: single i.v., 5 μg mRNA, 6 hours post injection; for delivery of the luciferase mRNA to the liver in vivo (luciferase intensity, IVIS): LNPs of L88, L854, L855 compared, FIGS. 4A-5B
Protocol: All animal experiments were conducted in accordance with the approved animal protocols. LNPs were formulated with lipids and mRNA encoding Luciferase (Luc) based on TABLE 3. LNPs comprising 5 μg mRNA and 50 μg active lipids (e.g., ionizable lipids) were injected intravenously (i.v.) to female adult BALB/c mice (6-8 wk. old). Six hours post injection, 100 μL of luciferin K salt (15 mg/mL in PBS) was administered to the mice through intraperitoneal injections. The mice were then imaged using the In Vivo Imaging System (IVIS) and the total flux of areas of interest was quantified. FIGS. 2A-2G illustrate representative IVIS data using the LNPs formulated with active lipids from TABLE 4. […] FIGS. 4A-7B show further analysis of the IVIS results. In FIGS. 4A-4B and FIGS. 5A-5B, the lipid nanoparticles were formulated with luciferase mRNA and lipids L88, L854, and L855, respectively. The experiment was conducted in duplicates. […] Existing lipid formulations in the industry were used as controls in the experiment. For example, lipids provided herein were compared to ALC-0315 (Pfizer) and SM-102 (Moderna).

[mRNA] Ug/ml [1] [Ug/ml] | EE % [1] [%] | PDI [2] | Size (nm) [2] [nm] | Compound | delivery of the luciferase mRNA to the liver in vivo (luciferase intensity, IVIS) (female adult BALB/c mice) | luciferase mRNA delivery to the liver compared to ALC-0315 (female adult BALB/c mice; FIGS. 6A-6B) | luciferase mRNA delivery compared to SM-102 (female adult BALB/c mice; FIGS. 7A-7B)
91 | 48 | 0.105 | 125.1 | CC/C=C\CCCCOC(=O)CCN(CCCN(C)CCCN(CCC(=O)OCCOC(=O)OCC(CCCC)CCCCCC)CCC(=O)OCCOC(=O)OCC(CCCC)CCCCCC)CCC(=O)OCCOC(=O)OCC(CCCC)CCCCCC (stereo not shown) [Lipid L0830] | – | – | –
78.9 | 95.1 | 0.125 | 99.86 | CCCCCCC(CCCC)COC(=O)CCOC(=O)CCN(CCC(=O)OCCC(=O)OCC(CCCC)CCCCCC)CCN(C)CCN(CCC(=O)OCCC(=O)OCC(CCCC)CCCCCC)CCC(=O)OCCC(=O)OCC(CCCC)CCCCCC (stereo not shown) [Lipid L0855] | more efficient delivery of the luciferase mRNA to the liver | – | more luciferase mRNA delivery than SM-102

Compound | [mRNA] Ug/ml [1] [Ug/ml] | EE % [1] [%] | PDI [2] | Size (nm) [2] [nm] | delivery of the luciferase mRNA to the liver in vivo (luciferase intensity, IVIS) (female adult BALB/c mice) | luciferase mRNA delivery to the liver compared to ALC-0315 (female adult BALB/c mice; FIGS. 6A-6B) | luciferase mRNA delivery compared to SM-102 (female adult BALB/c mice; FIGS. 7A-7B)
CCCCCCC(CCCC)COC(=O)CCOC(=O)CCN(CCCN(C)CCCN(CCC(=O)OCCC(=O)OCC(CCCC)CCCCCC)CCC(=O)OCCC(=O)OCC(CCCC)CCCCCC)CCC(=O)OCCC(=O)OCC(CCCC)CCCCCC (stereo not shown) [Lipid L0854] | 77.7 | 94.6 | 0.098 | 120.3 | more efficient delivery of the luciferase mRNA to the liver | more luciferase mRNA delivery to the liver than ALC-0315 | –
